Experimental data taken from patent publication US10513534B2, “2′-chloro nucleoside analogs for HCV infection” (priority 2012, dated 2019).

Key:
[1] = Stability in simulated gastric fluid; assay type: in vitro ADME; settings: simulated gastric fluid with pepsin, 100 μM, 2 hours, 37° C.
Protocol: Stability in Simulated Gastric and Intestinal Fluids: Simulated gastric and intestinal fluids containing pepsin and pancreatin respectively were prepared according to the U.S. Pharmacopoeia USP291 procedure(www.pharmacopeia.cn/v29240/usp29nf24s0_ris1s126.html). Each test compound (final concentration 100 μM) was incubated in duplicate in the appropriate fluid for 2 hours at 37° C. The samples were quenched with […] cold acetonitrile, vortexed for 30 seconds and then centrifuged at 16100×g for 10 min. The supernatants were analyzed by HPLC on a C-18 column with UV detection at 252 nm. The time zero samples were prepared by adding SGF or SIF fluid to the quenching solvent followed by the test compound. Stability of the compound was determined by peak area of the test compound after incubation and calculated as percent of the peak area observed at time zero.

[2] = system: Huh-7 cells; assay: Release of active metabolite in Huh-7 cells; assay type: in vitro ADME
Protocol: Huh-7 cells were plated in 1 mL culture medium (DMEM, containing glucose, L-glutamine and sodium pyruvate, 10% FBS, 100 IU/mL penicillin, 100 μg/mL streptomycin, 2 mM GlutaMAX, 1% MEM non-essential amino acids) at the concentration 0.8, 0.4 and 0.2 million cells per well on 6 well plates for 24, 48 and 72 hr treatment, respectively. Plated cells were incubated overnight at 37° C. in an incubator.
The following morning test compound was diluted to 20 μM from a stock solution in DMSO in fresh culture medium pre-warmed to 37° C. and 1 mL of the solution/well was added to cells. A final medium volume per well was 2.0 mL, test compound concentration in well was 10 μM and final DMSO concentration was 0.1%.
After 24, 48 or 72 hr, the medium was carefully removed and cell monolayers were washed twice with 2 mL ice-cold PBS per well. Following the last wash, all PBS was carefully removed and 1.0 mL of extraction solution (ice-cold 70% methanol) added. The plate was tightly covered with Parafilm, plastic plate cover and Parafilm again and an intracellular content was extracted at −20° C. for 24 hr.
After 24 hr the extracts were transferred into polypropylene microfuge tubes and dry on a refrigerated centrivap concentrator. Dry residues were reconstituted in 250 μL of HPLC-grade water and centrifuged at 16,000×g for 10 min. Aliquots (100 μL each) of the supernatants were transferred into a 96 well plate and internal standard (4 ng/mL final concentration) was added as the internal standard (IS) for LC-MS/MS analysis.

[3] = Stability in liver microsomes; assay type: in vitro ADME; settings: human liver microsomes 1.0 mg/mL, 10 μM, NADPH, 60 min
Protocol: Stability of test compounds were determined in human liver and intestinal microsomes in duplicate for each matrix. Pooled liver and intestinal microsomal proteins (1.0 mg/mL), suspended in incubation buffer (100 mM potassium phosphate, pH 7.4, 5 mM MgCl2, and 0.1 mM EDTA), were preincubated for 5 min at 37° C. with 10 μM of a test compound from a 10 mM stock solution in DMSO (final DMSO concentration was 0.1%); the reaction was initiated by the addition of NADPH (3 mM final concentration). At specific times (0 and 60 min), 0.1 mL samples were taken and the reaction terminated by the addition of 4 volumes of stop solution (acetonitrile with 500 ng/mL carbutamide as an internal standard). The samples were vortexed for 30 sec and then centrifuged at 16000×g for 10 min. 100 μL of supernatants were transferred to 96 deep-well plates preloaded with 100 μL distilled water and analyzed after mixing by LC-MS/MS. The MS peak area ratio of the test compound versus the internal standard was calculated and percent unchanged test compound over 60 minutes was calculated using this ratio.

[4] = system: fresh human hepatocytes; assay: Release of active metabolite in fresh human hepatocytes; assay type: in vitro ADME; settings: 10 μM
Protocol: Plates of fresh human and mouse hepatocytes were obtained on ice. The medium was removed and replaced with hepatocyte culture medium (William's E supplemented with penicillin-streptomycin, 1% L-glutamine, 1% insulin-transferrin-selenium and 0.1 μM Dexamethasone (Invitrogen) or with Invitro GRO HI medium complemented with Torpedo antibiotics (Celsis)). Cells were left overnight in an incubator at 37° C. to acclimatize to culture and the medium.
Hepatocyte incubations were conducted at a final volume of 0.5 mL hepatocyte culture medium/well (0.8 million cells/well for human and 0.5 million cells/well for mouse; 12 well plate no overlay, collagen coat). Culture medium from overnight incubation of cells was removed and replaced with fresh medium, pre-warmed to 37° C., containing 10 μM of test compound from a stock solution in DMSO (final DMSO concentration was 0.1%). At each specific time point, incubation medium was removed and cell monolayers were carefully washed two times with ice-cold PBS. Following the last wash, all PBS was carefully removed and 1.0 mL of extraction solution (ice-cold 70% methanol/30% water) added. Cells were scraped off and suspended in the extraction solution, transferred to 2 mL polypropylene microfuge tubes and intracellular contents extracted overnight at −20° C.
After the overnight treatment the cellular extracts were prepared by centrifugation at 16,000×g for 10 min to remove cellular debris. The remaining sample was then dried using a refrigerated centrivap concentrator. Dry extracts were reconstituted in 1000 μL of HPLC-grade water and centrifuged at 16,000×g for 10 min. Aliquots (100 μL each) of the supernatant were transferred into a 96 well plate and internal standard (4 ng/mL final concentration) was added as the internal standard (IS) for LC-MS/MS analysis.
The incubation time points were 6, 24 and 48 hours for human hepatocytes and 1, 4, 8, 12 and 24 hours for mouse hepatocytes.

[5] = system: Zluc cells; assay: Cytotoxicity evaluation, CellTiter-Blue Cell Viability Assay; settings: Zluc cells, CellTiter-Blue
[6] = Plasma nucleoside pharmacokinetics after single oral dose in CD-1 mice; assay type: in vivo; settings: single oral dose 10 mg/kg in PEG 200;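 for Ms Plasma nucleoside AUC: pmol·h/mL plasma normalized to a 1 µmol/kg dose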
In short: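 Mouse plasma was extracted by acetonitrile/0.2% formic acid protein precipitation using 2′-MeG-D3 or tiapride as internal standard. Nucleoside was quantified by positive-ion LC-MS/MS after C18 gradient separation. Calibration spanned 0.500 (LLOQ) to 200 ng/mL.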

## CC(C)OC(=O)[C@H](C)NP(=O)(OC[C@H]1O[C@@H](n2ccc(=O)[nH]c2=O)[C@](C)(Cl)[C@@H]1O)Oc1ccccc1 (single isomer, unassigned) [Compound 40ii Diastereomer 2]
[1]
  SGF stability (percent remaining): ++++ (75% < ++++)
[2]; 10 μM
  Huh-7 TP AUC: ++++ (1500 < ++++)
[2]; 10 μM test compound
  Huh-7 TP Cmax: ++++ (100 < ++++)
[2]; 10 μM, 24 hr
  Huh-7 TP (24 hr): ++++ (100 < ++++)
[2]; 10 μM, 48 hr
  Huh-7 TP (48 hr): ++++ (100 < ++++)
[2]; 10 μM, 72 hr
  Huh-7 TP (72 hr): ++++ (100 < ++++)
[3]
  HLM (1 hr) stability (percent remaining): ++ (25% < ++ ≤ 50%)
[4]
  FHH TP AUC: ++++ (1500 < ++++)
  FHH TP Cmax: ++++ (100 < ++++)
[4]; 6 hr
  FHH TP (6 hr): ++++ (100 < ++++)
[4]; 24 hr
  FHH TP (24 hr): +++ (50 < +++ ≤ 100)
[4]; 48 hr
  FHH TP (48 hr): +++ (50 < +++ ≤ 100)
[5]
  CC50: > 50 µM
[6]
  Ms Plasma nucleoside AUC: +++ (500 < +++ ≤ 1500)
  Ms Plasma nucleoside Cmax: +++ (50 < +++ ≤ 100)
